Key:
Experiment in all cases: relative viability (nuclei count vs DMSO), 5 days (fraction); higher = more cells survive
[1] = compound: C1/C(=C\C2=CC=CS2)/C(=O)/C(=C/C3=CC=CS3)/C1 + N=C(N)NC(=N)NCCc1ccccc1 [Phenformin] (partner 250 µM)
How it was run: (§1)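 Lung cancer cell lines in 1536-well plates got either a single drug or a fixed anchor-drug dose together with five library-drug doses (not always all listed) in √10 steps, by pin tool, on the day after seeding. Nuclei were counted after 5 days, and relative viability is the treated-to-vehicle ratio of nuclei counts. Values are medians of duplicate plates.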

[2] = compound: C1/C(=C\C2=CC=CS2)/C(=O)/C(=C/C3=CC=CS3)/C1 + Nc1ncn([C@H]2C[C@H](O)[C@@H](CO)O2)c(=O)n1 [Decitabine] (partner 2 µM)
How it was run: as §1

[3] = compound: C1=CC(=CC=C1C2=CC(=C(S2)NC(=O)N)C(=O)N)F [TPCA-1] + Cc1nc(NC(=O)N2CCC[C@H]2C(N)=O)sc1-c1ccnc(C(C)(C)C(F)(F)F)c1 [Alpelisib] (partner 2 µM)
How it was run: as §1

[4] = compound: C[C@]12O[C@H](C[C@]1(O)CO)n1c3ccccc3c3c4c(c5c6ccccc6n2c5c31)CNC4=O [Lestaurtinib] + CS(=O)(=O)CCNCc1ccc(-c2ccc3ncnc(Nc4ccc(OCc5cccc(F)c5)c(Cl)c4)c3c2)o1 [Lapatinib] (partner 2 µM)
How it was run: as §1

Cell Line | relative viability ([1]; first compound 0.2 µM) | relative viability ([1]; first compound 0.6325 µM) | relative viability ([1]; first compound 2 µM) | relative viability ([1]; first compound 6.325 µM) | relative viability ([1]; first compound 20 µM) | relative viability ([2]; first compound 0.2 µM) | relative viability ([2]; first compound 0.6325 µM) | relative viability ([2]; first compound 2 µM) | relative viability ([2]; first compound 6.325 µM) | relative viability ([2]; first compound 20 µM) | relative viability ([3]; first compound 0.04 µM) | relative viability ([3]; first compound 0.1265 µM) | relative viability ([3]; first compound 0.4 µM) | relative viability ([3]; first compound 1.265 µM) | relative viability ([3]; first compound 4 µM) | relative viability ([4]; first compound 0.005 µM) | relative viability ([4]; first compound 0.01581 µM) | relative viability ([4]; first compound 0.05 µM) | relative viability ([4]; first compound 0.1581 µM) | relative viability ([4]; first compound 0.5 µM)
NCI-H1666 | 0.55 | 0.596 | 0.589 | 0.522 | 0.584 | 0.697 | 0.732 | 0.751 | 0.636 | 0.736 | 1.08 | 0.813 | 0.925 | 1.04 | 0.747 | 0.732 | 1.2 | 0.51 | 0.556 | 0.277
NCI-H1944 | 0.232 | 0.207 | 0.2 | 0.18 | 0.182 | 0.423 | 0.427 | 0.439 |  | 0.392 | 0.859 | 0.799 | 0.815 | 0.744 | 0.658 | 0.924 | 0.733 | 0.691 | 0.58 | 0.571
NCI-H2023 | 0.414 | 0.488 | 0.439 | 0.396 | 0.383 | 0.247 | 0.234 | 0.228 | 0.21 | 0.236 | 0.598 | 0.522 | 0.634 | 0.489 | 0.417 | 0.987 | 0.753 | 0.503 | 0.22 | 0.0798
NCI-H1755 | 0.636 | 0.642 | 0.63 | 0.505 | 0.61 | 0.74 | 0.706 | 0.743 | 0.676 | 0.706 | 0.937 | 0.88 | 0.893 | 0.806 | 0.526 | 1.01 | 1.1 | 0.907 | 0.39 | 0.232
NCI-H23 | 0.775 | 0.863 | 0.828 | 0.78 | 0.699 | 0.32 | 0.293 | 0.314 | 0.34 | 0.285 | 0.756 | 0.665 | 0.705 | 0.587 | 0.512 | 1.21 | 1.19 | 0.776 | 0.888 | 0.212
ABC-1 | 0.234 | 0.253 | 0.247 | 0.219 | 0.211 | 1.22 | 1 | 1.2 | 0.87 | 0.972 | 1.38 | 0.98 | 0.847 | 0.967 | 0.591 | 1.27 | 1.32 | 1.06 | 1.01 | 1.15
201T | 0.495 | 0.431 | 0.478 | 0.425 | 0.455 | 0.862 | 0.87 | 0.826 | 0.843 | 0.811 | 1 | 0.998 | 1.01 | 1.08 | 0.983 | 1.05 | 1.08 | 1.04 | 1.2 | 0.961
NCI-H1734 | 0.415 | 0.403 | 0.443 | 0.363 | 0.412 | 0.582 | 0.427 | 0.523 | 0.403 | 0.486 | 0.726 | 0.571 | 0.767 | 0.69 | 0.686 | 1.09 | 1.22 | 0.808 | 0.895 | 0.199
NCI-H520 | 0.744 | 0.605 | 0.766 | 0.535 | 0.443 | 0.597 | 0.518 | 0.548 |  | 0.492 | 0.869 | 0.783 | 0.844 | 0.892 | 0.788 | 0.833 | 1 | 0.59 | 0.48 | 0.252
NCI-H1355 | 0.512 | 0.492 | 0.465 | 0.397 | 0.434 | 0.369 | 0.388 | 0.319 | 0.304 | 0.325 | 0.802 | 0.567 | 0.871 | 0.761 | 0.555 | 1.06 | 1.03 | 0.942 | 0.732 | 0.658
NCI-H1915 | 0.365 | 0.378 | 0.362 | 0.205 | 0.37 | 0.261 | 0.279 | 0.246 | 0.232 | 0.268 | 1.11 | 1.05 | 1.08 | 1.03 | 0.936 | 0.971 | 1.12 | 0.922 | 0.82 | 0.294
BEN | 0.268 | 0.293 | 0.285 | 0.214 | 0.257 | 0.666 | 0.724 | 0.893 | 0.643 | 0.644 | 1.14 | 0.842 | 1.13 | 1.19 | 0.806 | 0.743 | 0.959 | 0.586 | 0.408 | 0.255
NCI-H3122 | 0.442 | 0.377 | 0.41 | 0.307 | 0.333 | 0.509 | 0.375 | 0.472 | 0.381 | 0.463 | 0.846 | 0.728 | 0.92 | 0.947 | 0.74 | 1.07 | 1.05 | 1.02 | 0.98 | 0.414
SK-MES-1 | 0.722 | 0.742 | 0.605 | 0.644 | 0.546 | 0.408 | 0.424 | 0.409 | 0.335 | 0.348 | 0.935 | 0.704 | 0.996 | 0.691 | 0.586 | 0.529 | 0.453 | 0.374 | 0.324 | 0.285
HOP-62 | 0.686 | 0.714 | 0.531 | 0.664 | 0.672 | 0.211 | 0.202 | 0.199 | 0.221 | 0.202 | 1.05 | 0.602 | 0.898 | 0.874 | 0.914 | 0.889 | 1.17 | 1.02 | 1.08 | 0.93

Reference: the supplement of paper PMC10307832
